Counter-ions that a name gives are not always drawn. Like-named read-outs stand apart in the source and are kept apart here. A value given as a limit tells only on which side of the number the result lay.

Type in all cases: cell-based
The target of one assay is T1, MC1R (Homo sapiens, UniProt Q01726).
T1 construct: expressed in transfected cells
The assay can be described thus: In vitro activity of MCR receptors, intracellular cAMP signal (HEK293T/MCR cell line), MC1R. How it is done: (§1) Test purpose: to evaluate the agonistic effect of the compound on MCRs by detecting intracellular cAMP signal changes.
(§2) Cells were resuspended with 1×PBS+500 μM IBMX. 10 μL of the cell suspension was added into a 384-well plate to be tested, and the cell concentration was adjusted to 1×10^4 cells per well for later use. A pre-prepared solution of the compound to be tested was added, and dimethyl sulfoxide of the same volume was added to blank control wells. The test plate was centrifuged at 300 rpm for 1 minute, incubated at 37° C. for 30 minutes, and added with 5 μL of cAMP-d2 and 5 μL of a CAMP-cry antibody detection reagent. The test plate was centrifuged at 300 rpm for 1 minute, and incubated at room temperature for 60 minutes.

The target of the next assay is T2, MC3R (Homo sapiens, UniProt P41968).
T2 construct: expressed in transfected cells
The assay can be described thus: In vitro activity of MCR receptors, intracellular cAMP signal (HEK293T/MCR cell line), MC3R. How it is done:
as §1, §2

Another assay addresses T3, MC5R (Homo sapiens, UniProt P33032).
T3 construct: expressed in transfected cells
As to the kind of experiment: In vitro activity of MCR receptors, intracellular cAMP signal (HEK293T/MCR cell line), MC5R. How it is done: as §1
as §2, with “minutes. The test plate was placed in the Envision multifunctional microplate reader for reading, with a detection wavelength of 665/615 nm.” for “minutes.”

For the next assay, the target named is T4, MC4R (Homo sapiens, UniProt P32245).
T4 construct: expressed in transfected cells
The assay can be described thus: In vitro activity of MCR receptors, intracellular cAMP signal (HEK293T/MCR cell line), MC4R. How it is done: as §1
as §2, with “minutes. The test plate was placed in the Envision multifunctional microplate reader for reading, with a detection wavelength of 665/615 nm.” for “minutes.”

The mark [1] stands for this setting: cAMP, HEK293T/MCR cell line, read-out: MC1R EC50.
The mark [2] stands for this setting: cAMP, HEK293T/MCR cell line, read-out: MC5R EC50.
Setting [3] is: cAMP, HEK293T/MCR cell line, read-out: MC4R EC50.
The mark [4] stands for this setting: cAMP, HEK293T/MCR cell line, read-out: MC3R EC50.

T2 sequence (P41968 whole entry): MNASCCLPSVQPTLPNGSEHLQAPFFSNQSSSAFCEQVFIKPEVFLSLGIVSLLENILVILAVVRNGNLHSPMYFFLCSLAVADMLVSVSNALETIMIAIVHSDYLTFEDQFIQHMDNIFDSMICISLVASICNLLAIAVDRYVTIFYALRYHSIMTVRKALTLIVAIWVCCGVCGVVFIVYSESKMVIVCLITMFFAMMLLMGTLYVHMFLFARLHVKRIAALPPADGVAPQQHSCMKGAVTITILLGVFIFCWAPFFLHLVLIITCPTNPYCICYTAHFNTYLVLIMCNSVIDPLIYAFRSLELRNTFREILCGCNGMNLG
T4 sequence (P32245 whole entry): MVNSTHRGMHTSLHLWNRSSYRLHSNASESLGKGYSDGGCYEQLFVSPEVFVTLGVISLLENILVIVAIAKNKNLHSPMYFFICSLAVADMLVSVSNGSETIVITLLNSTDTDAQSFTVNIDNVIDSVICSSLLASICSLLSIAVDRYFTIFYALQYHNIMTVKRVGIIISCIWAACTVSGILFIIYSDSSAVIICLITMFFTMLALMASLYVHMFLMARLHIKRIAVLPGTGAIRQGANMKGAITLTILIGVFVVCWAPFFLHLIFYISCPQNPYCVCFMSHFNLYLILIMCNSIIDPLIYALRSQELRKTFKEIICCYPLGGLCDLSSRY
T1 sequence (Q01726 whole entry): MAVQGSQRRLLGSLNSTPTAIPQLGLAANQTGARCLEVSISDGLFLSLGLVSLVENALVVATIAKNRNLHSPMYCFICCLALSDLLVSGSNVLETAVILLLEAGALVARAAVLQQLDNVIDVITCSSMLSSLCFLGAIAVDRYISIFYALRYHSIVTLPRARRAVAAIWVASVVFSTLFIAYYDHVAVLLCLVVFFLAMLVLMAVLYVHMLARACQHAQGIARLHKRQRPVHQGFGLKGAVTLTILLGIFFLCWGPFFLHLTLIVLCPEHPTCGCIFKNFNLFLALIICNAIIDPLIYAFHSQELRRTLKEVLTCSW
T3 sequence (P33032 whole entry): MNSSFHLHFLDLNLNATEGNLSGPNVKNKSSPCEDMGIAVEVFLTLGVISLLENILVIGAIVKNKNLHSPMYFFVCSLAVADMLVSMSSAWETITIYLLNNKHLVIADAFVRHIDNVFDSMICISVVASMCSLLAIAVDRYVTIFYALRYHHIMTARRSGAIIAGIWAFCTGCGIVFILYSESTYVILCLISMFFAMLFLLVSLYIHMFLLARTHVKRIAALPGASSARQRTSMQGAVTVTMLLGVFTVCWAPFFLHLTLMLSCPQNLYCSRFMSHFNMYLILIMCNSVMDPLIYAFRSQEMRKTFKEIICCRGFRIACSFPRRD

Broadly, the EC50 is the concentration at which the effect is half-maximal. As for `CCC(C)(C)N1CC(C(=O)N2C[C@@H](C)N(c3ccc(F)cc3)[C@@H](C)C2)[C@H](c2ccc(F)cc2F)C1` (stereo partly drawn) [Compound 23], the EC50 at MC1R (setting [1]) turned out to be 58 nM; on MC3R, 316 nM; on MC5R (setting [2]) it was 1950 nM; on MC4R (setting [3]), 4 nM.

As for `C[C@@H]1CN(C(=O)C2CN(c3ccc(C#N)cn3)CC2c2ccc(F)cc2F)C[C@H](C)N1c1ccc(F)cc1` (single isomer, unassigned) [Compound 12], the EC50 on MC1R was 234 nM; at MC3R (setting [4]), 5 nM; on MC5R, 740 nM; at MC4R, 0.2 nM.

As for `C[C@@H]1CN(C(=O)C2CN(C(C)(C)C)CC2c2ccc(F)cc2F)C[C@H](C)N1c1ccc(F)cc1` (single isomer, unassigned) [Compound 3], the concentration for a half-maximal effect (EC50) on MC1R is 300 nM; at MC3R it was 2400 nM; on MC5R, above 10000 nM; on MC4R, 30 nM.

For the compound `C[C@@H]1CN(C(=O)[C@@H]2CN(C3CCOCC3)C[C@H]2c2ccc(F)cc2F)C[C@H](C)N1c1ccc(Cl)cc1` [Compound 15], the EC50 on MC1R was 580 nM; at MC3R, 574 nM; at MC5R (setting [2]) it was above 10000 nM; at MC4R (setting [3]), 3 nM.

As to `C[C@@H]1CN(C(=O)C2CN(C3CCOC(C)(C)C3)CC2c2ccc(F)cc2F)C[C@H](C)N1c1ccc(F)cc1` (single isomer, unassigned) [Compound 21b], the half-maximal effective concentration (EC50) was 492 nM at MC1R (setting [1]), 268 nM on MC3R, above 10000 nM on MC5R (setting [2]) and 5.3 nM at MC4R (setting [3]).

For the compound `C[C@@H]1CN(C(=O)C2CN(C3CCOCC3)CC2c2ccc(Cl)cc2)C[C@H](C)N1c1ccc(F)cc1` (single isomer, unassigned) [Compound 16], the EC50 at MC1R worked out at 167 nM; at MC3R (setting [4]), 254 nM; on MC5R, 1170 nM; at MC4R, 6 nM.

In the case of `C[C@@H]1CN(C(=O)[C@@H]2CN(C3CCCCC3)C[C@H]2c2ccc(F)cc2F)C[C@H](C)N1c1ccc(F)cc1` [Compound 18], the EC50 at MC1R (setting [1]) was 29 nM; at MC3R, 201 nM; on MC5R (setting [2]), 1370 nM; on MC4R (setting [3]), 4 nM.

`C[C@@H]1CN(C(=O)[C@@H]2CN(C(C)(C)C)C[C@H]2c2ccc(F)cc2F)C[C@H](C)N1c1ccccc1` [Hydrochloride salt of compound 6]: the EC50 is 80 nM at MC1R (setting [1]), 2030 nM at MC3R, 1150 nM on MC5R (setting [2]) and 24 nM at MC4R (setting [3]).

Consider `C[C@@H]1CN(C(=O)C2CN(C(C)(C)C)CC2c2ccc(F)cc2F)C[C@H](C)N1c1ccc(C(F)(F)F)cc1` (single isomer, unassigned) [Compound 5], for which the 50% effective concentration (EC50) at MC1R was 882 nM; at MC3R (setting [4]) it was 3500 nM; at MC5R, above 10000 nM; on MC4R, 35 nM.

Consider `C[C@@H]1CN(C(=O)C2CN([C@H]3CCO[C@@H](C)C3)C[C@H]2c2ccc(F)cc2F)C[C@H](C)N1c1ccc(F)cc1` (stereo partly drawn) [Compound 22d], for which the concentration giving a half-maximal response (EC50) on MC1R (setting [1]) was 106 nM; at MC3R, 696 nM; at MC5R (setting [2]), above 10000 nM; at MC4R (setting [3]) it was 1.9 nM.

Turning to `CC1CC(N2CC(C(=O)N3C[C@@H](C)N(c4ccc(F)cc4)[C@@H](C)C3)C(c3ccc(F)cc3F)C2)CCO1` (single isomer, unassigned) [Compound 22a], the EC50 on MC1R (setting [1]) was 790 nM; at MC3R it was 265 nM; on MC5R (setting [2]) it was above 10000 nM; at MC4R (setting [3]) it was 0.03 nM.

Consider `C[C@@H]1CN(C(=O)C2CN(c3cccnn3)CC2c2ccc(F)cc2F)C[C@H](C)N1c1ccc(F)cc1` (single isomer, unassigned) [Compound 11], for which the EC50 on MC1R worked out at 82 nM; at MC3R (setting [4]), 26 nM; on MC5R it was 2130 nM; at MC4R, 0.4 nM.

On to `C[C@@H]1CN(C(=O)C2CN(C3CCOC3)CC2c2ccc(F)cc2F)C[C@H](C)N1c1ccc(F)cc1` (single isomer, unassigned) [Compound 20a], for which the EC50 on MC1R (setting [1]) was 2010 nM; on MC3R, 3130 nM; at MC5R (setting [2]) it was above 10000 nM; at MC4R (setting [3]), 26 nM.

Take `C[C@@H]1CN(C(=O)[C@@H]2CN(C3CCOCC3)C[C@H]2c2ccc(F)cc2F)C[C@H](C)N1c1ccc(F)c(F)c1` [Compound 14]: the EC50 at MC1R (setting [1]) worked out at 575 nM; on MC3R, 672 nM; on MC5R (setting [2]), 919 nM; at MC4R (setting [3]) it was 10 nM.

As to `C[C@@H]1CN(C(=O)[C@@H]2CN(C(C)(C)C)C[C@H]2c2ccc(F)cc2F)C[C@H](C)N1c1ccccn1` [Compound 1], the EC50 was 2330 nM at MC1R, above 10000 nM on MC3R (setting [4]), above 10000 nM on MC5R and 148 nM on MC4R.

Turning to `C[C@@H]1CN(C(=O)C2CN(c3ccccc3)CC2c2ccc(F)cc2F)C[C@H](C)N1c1ccc(F)cc1` (single isomer, unassigned) [Compound 13], the concentration giving a half-maximal response (EC50) at MC1R is above 10000 nM; at MC3R (setting [4]), 3300 nM; on MC5R, above 10000 nM; on MC4R it was 50 nM.

On to `C[C@@H]1CN(C(=O)[C@@H]2CN(C3CCC3)C[C@H]2c2ccc(F)cc2F)C[C@H](C)N1c1ccc(F)cc1` [Compound 17], for which the concentration for a half-maximal effect (EC50) at MC1R (setting [1]) amounted to 55 nM; at MC3R, 1100 nM; at MC5R (setting [2]), 8150 nM; on MC4R (setting [3]), 6.7 nM.

As to `C[C@@H]1CN(C(=O)C2CN(C(C)(C)C)CC2c2ccc(Cl)cc2)C[C@H](C)N1c1ccc(F)cc1` (single isomer, unassigned) [Compound 9], the EC50 was found to be 45 nM on MC1R, 1760 nM on MC3R (setting [4]), 402 nM at MC5R and 16 nM on MC4R.
